Among the data in the supplement of paper PMC12823440, “Inhibitors supercharge kinase turnover through native proteolytic circuits” (Nature, 2025) are EC50 and Kd values, retold here.

Common to all, as to details: lysate: 5-cell-line mix (COLO-205, K562, SK-N-BE(2), MV-4-11, OVCAR-8)
The target of assay [1] is UNC119 (UniProt Q13432). Kind of assay: EC50 for competition of Kinobead binding.
For assay [2], the target named is T1, BCR (UniProt P11274).
T1 sequence (whole entry): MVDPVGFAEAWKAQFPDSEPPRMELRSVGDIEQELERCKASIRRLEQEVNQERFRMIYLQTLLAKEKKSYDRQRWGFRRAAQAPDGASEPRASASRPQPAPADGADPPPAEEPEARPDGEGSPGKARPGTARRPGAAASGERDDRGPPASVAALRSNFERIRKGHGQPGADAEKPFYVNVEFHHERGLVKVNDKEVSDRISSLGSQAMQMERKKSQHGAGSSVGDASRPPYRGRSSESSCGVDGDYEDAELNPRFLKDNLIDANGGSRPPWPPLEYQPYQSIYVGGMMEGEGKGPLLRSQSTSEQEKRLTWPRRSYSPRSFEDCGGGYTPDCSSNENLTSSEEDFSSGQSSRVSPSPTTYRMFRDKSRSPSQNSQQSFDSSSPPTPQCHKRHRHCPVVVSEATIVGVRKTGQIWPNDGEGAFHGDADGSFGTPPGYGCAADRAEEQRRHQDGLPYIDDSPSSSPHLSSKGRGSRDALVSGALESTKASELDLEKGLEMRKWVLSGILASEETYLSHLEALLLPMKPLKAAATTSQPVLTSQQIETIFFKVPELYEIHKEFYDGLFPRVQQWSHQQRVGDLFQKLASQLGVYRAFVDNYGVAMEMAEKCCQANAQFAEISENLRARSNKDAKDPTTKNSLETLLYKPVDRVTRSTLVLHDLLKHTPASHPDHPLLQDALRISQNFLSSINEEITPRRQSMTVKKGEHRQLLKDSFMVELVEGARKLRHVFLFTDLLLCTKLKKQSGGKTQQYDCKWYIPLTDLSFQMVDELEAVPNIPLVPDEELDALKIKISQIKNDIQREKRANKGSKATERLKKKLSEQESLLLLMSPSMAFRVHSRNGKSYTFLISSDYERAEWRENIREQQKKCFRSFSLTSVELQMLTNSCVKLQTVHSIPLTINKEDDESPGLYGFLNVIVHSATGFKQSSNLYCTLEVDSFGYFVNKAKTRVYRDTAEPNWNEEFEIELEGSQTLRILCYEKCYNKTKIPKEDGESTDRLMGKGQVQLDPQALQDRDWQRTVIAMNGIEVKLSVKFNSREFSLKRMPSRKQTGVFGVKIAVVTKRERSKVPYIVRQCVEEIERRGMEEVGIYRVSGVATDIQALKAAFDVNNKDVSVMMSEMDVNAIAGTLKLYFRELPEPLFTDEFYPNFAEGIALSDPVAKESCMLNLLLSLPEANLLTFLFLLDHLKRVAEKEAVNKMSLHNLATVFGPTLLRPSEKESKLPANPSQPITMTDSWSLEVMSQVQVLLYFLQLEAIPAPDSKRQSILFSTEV
Kind of assay: EC50 for competition of Kinobead binding.

For a further assay, the target named is ABL1 (UniProt P00519). Kind of assay: EC50 for competition of Kinobead binding.
Sequence of ABL1 (P00519 whole entry): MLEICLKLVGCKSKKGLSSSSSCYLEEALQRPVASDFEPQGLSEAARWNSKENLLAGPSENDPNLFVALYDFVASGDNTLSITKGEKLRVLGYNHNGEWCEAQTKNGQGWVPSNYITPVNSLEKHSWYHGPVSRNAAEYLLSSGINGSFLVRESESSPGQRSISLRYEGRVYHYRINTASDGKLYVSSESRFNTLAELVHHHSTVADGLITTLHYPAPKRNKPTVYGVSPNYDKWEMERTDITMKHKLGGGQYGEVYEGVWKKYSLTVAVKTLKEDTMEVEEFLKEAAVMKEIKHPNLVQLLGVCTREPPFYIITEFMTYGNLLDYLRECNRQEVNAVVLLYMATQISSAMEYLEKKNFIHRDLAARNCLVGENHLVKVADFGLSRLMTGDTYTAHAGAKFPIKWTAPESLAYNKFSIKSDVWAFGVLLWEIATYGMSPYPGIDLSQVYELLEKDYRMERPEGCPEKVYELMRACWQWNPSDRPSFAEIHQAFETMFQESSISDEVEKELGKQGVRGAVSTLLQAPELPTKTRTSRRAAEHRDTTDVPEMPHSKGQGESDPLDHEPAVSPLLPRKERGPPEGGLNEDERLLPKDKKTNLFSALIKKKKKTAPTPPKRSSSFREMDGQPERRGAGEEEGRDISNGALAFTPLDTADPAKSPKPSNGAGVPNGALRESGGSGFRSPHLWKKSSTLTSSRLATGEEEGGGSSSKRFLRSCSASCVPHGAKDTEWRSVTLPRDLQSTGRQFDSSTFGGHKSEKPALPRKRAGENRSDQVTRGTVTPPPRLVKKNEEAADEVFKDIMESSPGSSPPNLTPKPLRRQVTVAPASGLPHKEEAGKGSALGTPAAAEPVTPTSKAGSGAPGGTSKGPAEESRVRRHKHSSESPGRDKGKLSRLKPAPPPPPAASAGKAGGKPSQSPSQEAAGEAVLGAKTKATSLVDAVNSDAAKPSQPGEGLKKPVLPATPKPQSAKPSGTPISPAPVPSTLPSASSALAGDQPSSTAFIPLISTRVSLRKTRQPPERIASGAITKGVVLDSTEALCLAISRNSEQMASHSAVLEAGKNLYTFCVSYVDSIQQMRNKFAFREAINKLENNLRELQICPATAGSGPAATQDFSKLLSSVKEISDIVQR
A further assay has as its target ABL2 (UniProt P42684). Kind of assay: EC50 for competition of Kinobead binding.
A further assay addresses T2, MAP4K3 (UniProt Q8IVH8).
T2 sequence (whole entry): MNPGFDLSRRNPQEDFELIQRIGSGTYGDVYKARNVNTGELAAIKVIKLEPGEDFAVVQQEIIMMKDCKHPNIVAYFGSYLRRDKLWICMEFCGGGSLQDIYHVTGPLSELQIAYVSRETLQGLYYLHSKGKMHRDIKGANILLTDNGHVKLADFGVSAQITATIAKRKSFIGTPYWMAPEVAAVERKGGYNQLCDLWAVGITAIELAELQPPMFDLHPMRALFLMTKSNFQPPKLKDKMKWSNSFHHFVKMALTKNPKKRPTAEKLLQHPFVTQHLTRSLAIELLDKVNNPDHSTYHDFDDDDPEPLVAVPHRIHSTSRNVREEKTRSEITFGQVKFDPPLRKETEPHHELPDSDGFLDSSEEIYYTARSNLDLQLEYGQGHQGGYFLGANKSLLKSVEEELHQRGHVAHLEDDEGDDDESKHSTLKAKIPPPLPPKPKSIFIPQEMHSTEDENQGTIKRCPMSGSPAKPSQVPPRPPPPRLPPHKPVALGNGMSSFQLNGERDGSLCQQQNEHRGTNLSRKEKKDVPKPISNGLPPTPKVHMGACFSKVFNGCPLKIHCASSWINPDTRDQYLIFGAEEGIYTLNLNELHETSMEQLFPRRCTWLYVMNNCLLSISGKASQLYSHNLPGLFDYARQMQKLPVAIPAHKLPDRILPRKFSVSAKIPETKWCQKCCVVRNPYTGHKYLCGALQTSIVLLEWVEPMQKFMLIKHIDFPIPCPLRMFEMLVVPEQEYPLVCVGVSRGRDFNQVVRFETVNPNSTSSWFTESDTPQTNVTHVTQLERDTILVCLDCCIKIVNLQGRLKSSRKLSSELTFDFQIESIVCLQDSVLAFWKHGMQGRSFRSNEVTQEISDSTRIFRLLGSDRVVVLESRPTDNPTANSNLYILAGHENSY
Kind of assay: EC50 for competition of Kinobead binding.

The target in a further assay is FRK (UniProt P42685). Kind of assay: EC50 for competition of Kinobead binding.
Sequence of FRK (P42685 whole entry): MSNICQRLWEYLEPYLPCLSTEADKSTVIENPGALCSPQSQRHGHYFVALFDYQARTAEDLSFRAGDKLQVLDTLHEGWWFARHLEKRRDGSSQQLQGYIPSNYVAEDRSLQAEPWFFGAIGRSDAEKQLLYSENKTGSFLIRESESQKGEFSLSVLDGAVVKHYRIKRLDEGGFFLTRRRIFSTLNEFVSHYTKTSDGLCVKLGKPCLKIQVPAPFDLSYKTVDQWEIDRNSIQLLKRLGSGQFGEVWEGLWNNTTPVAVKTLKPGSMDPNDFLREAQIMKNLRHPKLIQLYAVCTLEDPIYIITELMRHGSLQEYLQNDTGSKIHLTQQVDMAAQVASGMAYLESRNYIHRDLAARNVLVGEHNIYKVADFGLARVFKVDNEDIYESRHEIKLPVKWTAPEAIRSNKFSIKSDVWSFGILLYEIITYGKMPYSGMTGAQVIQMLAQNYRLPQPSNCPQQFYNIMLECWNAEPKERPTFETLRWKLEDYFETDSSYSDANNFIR
For the next assay, the target named is BTK (UniProt Q06187). The assay is described as follows: EC50 for competition of Kinobead binding.
Sequence of BTK (Q06187 whole entry): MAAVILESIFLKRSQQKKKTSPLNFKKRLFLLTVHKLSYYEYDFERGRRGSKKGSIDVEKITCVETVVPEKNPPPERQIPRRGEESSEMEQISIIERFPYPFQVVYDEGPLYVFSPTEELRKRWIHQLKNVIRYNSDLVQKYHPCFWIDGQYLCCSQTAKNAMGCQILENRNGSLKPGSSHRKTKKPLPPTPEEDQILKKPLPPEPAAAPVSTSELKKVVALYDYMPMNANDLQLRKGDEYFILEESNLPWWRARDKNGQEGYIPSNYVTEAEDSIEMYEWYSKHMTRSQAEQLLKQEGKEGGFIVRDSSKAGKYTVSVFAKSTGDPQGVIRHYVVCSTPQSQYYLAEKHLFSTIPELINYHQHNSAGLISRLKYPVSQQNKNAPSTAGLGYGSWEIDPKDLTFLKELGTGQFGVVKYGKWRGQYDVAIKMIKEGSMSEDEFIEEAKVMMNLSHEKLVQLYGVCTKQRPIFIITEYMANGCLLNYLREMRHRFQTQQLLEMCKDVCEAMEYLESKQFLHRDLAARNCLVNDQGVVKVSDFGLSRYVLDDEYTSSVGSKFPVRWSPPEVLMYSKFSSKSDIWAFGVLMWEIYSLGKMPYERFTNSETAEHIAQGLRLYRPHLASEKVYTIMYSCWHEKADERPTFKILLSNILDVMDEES
Assay [3] has as its target T3, PAG1 (UniProt Q9NWQ8).
T3 sequence (whole entry): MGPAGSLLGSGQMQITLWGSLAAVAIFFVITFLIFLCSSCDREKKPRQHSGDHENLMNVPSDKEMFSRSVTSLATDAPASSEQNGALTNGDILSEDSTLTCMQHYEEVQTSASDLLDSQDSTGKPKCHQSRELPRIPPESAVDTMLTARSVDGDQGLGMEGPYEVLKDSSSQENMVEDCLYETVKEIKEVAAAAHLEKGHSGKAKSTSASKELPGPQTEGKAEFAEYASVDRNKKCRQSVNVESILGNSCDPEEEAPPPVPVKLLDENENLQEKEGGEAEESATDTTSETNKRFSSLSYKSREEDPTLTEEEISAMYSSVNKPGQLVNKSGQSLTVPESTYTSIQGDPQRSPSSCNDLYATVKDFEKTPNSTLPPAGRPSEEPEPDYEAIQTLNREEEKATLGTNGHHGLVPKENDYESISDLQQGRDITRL
Kind of assay: EC50 for competition of Kinobead binding.

The target in assay [4] is UNC119 (UniProt Q13432). The assay is described as follows: apparent Kd (Kinobeads competition).
Assay [5] deals with T1, BCR. The assay is described as follows: apparent Kd (Kinobeads competition).
The next assay concerns the target T4, FECH (UniProt P22830).
T4 sequence (whole entry): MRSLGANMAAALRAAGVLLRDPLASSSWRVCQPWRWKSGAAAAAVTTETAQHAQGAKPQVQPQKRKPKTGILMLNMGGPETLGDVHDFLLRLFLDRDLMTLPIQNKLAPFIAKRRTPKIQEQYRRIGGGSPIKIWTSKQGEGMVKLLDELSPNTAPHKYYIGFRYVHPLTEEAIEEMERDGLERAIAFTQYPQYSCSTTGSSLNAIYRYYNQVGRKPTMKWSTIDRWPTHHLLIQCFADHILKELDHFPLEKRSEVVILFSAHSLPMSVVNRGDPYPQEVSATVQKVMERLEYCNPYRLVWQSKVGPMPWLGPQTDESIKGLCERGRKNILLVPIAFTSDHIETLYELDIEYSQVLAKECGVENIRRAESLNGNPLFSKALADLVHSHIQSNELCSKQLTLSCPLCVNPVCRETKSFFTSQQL
Kind of assay: apparent Kd (Kinobeads competition).

The target of assay [6] is T3, PAG1. The assay is described as follows: apparent Kd (Kinobeads competition).

± gives the uncertainty stated by the source.

Sequence of ABL2 (P42684 whole entry): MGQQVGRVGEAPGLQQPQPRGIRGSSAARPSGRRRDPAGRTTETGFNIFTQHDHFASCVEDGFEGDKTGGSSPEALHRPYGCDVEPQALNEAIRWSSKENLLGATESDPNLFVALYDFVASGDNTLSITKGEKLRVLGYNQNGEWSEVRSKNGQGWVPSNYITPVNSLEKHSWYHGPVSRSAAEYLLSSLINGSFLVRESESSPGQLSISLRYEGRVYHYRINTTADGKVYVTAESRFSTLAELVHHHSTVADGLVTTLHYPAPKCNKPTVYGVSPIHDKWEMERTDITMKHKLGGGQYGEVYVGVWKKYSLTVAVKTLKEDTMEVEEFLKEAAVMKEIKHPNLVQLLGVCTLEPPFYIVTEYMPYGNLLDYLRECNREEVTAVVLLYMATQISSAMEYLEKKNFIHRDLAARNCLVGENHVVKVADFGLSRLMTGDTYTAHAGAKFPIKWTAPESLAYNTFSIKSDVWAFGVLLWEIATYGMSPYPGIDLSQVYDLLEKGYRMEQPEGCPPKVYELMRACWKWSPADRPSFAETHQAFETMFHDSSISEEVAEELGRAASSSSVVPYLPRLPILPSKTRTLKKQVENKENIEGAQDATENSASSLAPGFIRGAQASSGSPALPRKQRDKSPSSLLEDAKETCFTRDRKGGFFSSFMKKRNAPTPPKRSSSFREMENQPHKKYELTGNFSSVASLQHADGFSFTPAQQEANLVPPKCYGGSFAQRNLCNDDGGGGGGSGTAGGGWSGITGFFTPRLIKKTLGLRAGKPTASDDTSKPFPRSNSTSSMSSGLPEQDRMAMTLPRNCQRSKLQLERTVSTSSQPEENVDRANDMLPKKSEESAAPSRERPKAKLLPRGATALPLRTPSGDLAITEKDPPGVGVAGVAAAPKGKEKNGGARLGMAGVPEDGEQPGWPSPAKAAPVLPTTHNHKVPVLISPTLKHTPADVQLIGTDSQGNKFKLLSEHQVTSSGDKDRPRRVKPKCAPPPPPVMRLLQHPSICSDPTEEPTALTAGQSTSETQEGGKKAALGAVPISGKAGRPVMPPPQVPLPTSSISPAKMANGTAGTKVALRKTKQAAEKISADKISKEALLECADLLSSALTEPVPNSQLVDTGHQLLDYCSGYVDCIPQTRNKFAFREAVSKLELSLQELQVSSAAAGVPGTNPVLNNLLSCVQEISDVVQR

Turning to `COc1ccc2c(C(=O)Nc3ccc(NC(=O)c4nn(C5CCN(C(=O)CC(C)(C)C#N)CC5)c5ccc(F)cc45)cc3Cl)cnn2c1` [Src Inhibitor 3], the EC50 worked out at 904 ± 250 nM at UNC119 [1]; 790 ± 430 nM on BCR [2]; 1530 ± 2600 nM at ABL1; 332 ± 170 nM at ABL2; 14300 ± 28000 nM at MAP4K3; 17600 ± 34000 nM at FRK. Besides, the EC50 on BTK turned out to be 4250 ± 2700 nM; on PAG1 [3] it was 70.9 ± 11 nM. The Kd at UNC119 [4] is 24.1 nM; at BCR [5], 127 nM; on FECH, 6350 nM; at PAG1 [6], 48.4 nM.
